The numbers were not newly measured in US20030087306A1, “Methods for identifying novel multimeric agents that modulate receptors” (priority 1998, published 2003), which cites them from elsewhere.

Counter-ions that a name gives are not always drawn. Like-named read-outs stand apart in the source and are kept apart here.

The target in one data set is T1, 5-HT1F receptors (Homo sapiens, UniProt P30939).
T1 construct: expressed in transfected cells; host or cells: NIH-3T3 cells
T1 sequence (P30939 1-366): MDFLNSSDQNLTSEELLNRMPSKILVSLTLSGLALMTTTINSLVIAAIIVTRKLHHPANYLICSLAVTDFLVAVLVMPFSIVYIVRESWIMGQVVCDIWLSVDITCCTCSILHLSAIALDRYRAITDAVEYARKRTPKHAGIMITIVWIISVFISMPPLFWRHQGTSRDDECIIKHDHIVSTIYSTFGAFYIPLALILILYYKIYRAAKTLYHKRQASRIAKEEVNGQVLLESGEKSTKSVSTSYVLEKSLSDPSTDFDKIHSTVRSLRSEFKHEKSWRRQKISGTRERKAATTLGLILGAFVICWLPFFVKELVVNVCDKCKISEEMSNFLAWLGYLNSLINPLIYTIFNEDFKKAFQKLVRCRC

Data set [1] concerns the target 5-HT1D receptor. The following applies: for potency (pD2 range): rabbit saphenous vein rings.
The target in a further data set is T2, AT1 receptor (Homo sapiens, UniProt P30556).
T2 sequence (P30556 1-359): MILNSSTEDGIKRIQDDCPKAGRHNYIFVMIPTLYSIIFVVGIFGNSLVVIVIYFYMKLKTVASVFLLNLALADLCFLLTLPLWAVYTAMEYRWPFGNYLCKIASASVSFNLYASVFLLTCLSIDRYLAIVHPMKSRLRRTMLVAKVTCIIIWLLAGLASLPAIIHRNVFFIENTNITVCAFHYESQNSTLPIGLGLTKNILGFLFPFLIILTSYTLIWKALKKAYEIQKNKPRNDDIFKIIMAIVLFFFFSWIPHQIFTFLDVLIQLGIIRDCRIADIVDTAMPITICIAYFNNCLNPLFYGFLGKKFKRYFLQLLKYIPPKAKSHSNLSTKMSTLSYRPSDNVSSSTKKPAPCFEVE

The target in another data set is T3, 5-HT1 receptor (Cricetulus griseus, UniProt P46636).
T3 construct: These CHO cells are screened for endogenous G protein-coupled receptors; endogenous in cells; host or cells: CHO cells with a cAMP-responsive luciferase reporter
T3 sequence (P46636 whole entry): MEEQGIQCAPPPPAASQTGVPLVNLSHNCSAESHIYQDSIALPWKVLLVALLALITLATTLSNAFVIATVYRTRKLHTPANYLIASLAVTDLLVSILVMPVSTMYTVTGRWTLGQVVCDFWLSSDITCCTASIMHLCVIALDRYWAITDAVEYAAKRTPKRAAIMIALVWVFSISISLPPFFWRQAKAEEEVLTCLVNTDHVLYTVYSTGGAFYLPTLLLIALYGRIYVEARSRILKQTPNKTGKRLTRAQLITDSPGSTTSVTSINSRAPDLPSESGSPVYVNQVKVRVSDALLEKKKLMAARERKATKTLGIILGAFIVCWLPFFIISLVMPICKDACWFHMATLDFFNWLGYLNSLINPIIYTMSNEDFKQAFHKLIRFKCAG
To be noted: luciferase expression, CHO cells.

The next data set relates to human coronary artery. The following applies: for effectiveness in causing contraction of human isolated coronary artery: endothelium-denuded segments, in vitro.
In data set [2] the test system is cholinergic receptors on bronchial smooth muscle.
The target in another data set is β2-adrenergic receptor (Homo sapiens, UniProt P07550). To be noted: for duration of action / onset of action (in words): human, in vivo.
β2-adrenergic receptor, sequence (P07550 whole entry): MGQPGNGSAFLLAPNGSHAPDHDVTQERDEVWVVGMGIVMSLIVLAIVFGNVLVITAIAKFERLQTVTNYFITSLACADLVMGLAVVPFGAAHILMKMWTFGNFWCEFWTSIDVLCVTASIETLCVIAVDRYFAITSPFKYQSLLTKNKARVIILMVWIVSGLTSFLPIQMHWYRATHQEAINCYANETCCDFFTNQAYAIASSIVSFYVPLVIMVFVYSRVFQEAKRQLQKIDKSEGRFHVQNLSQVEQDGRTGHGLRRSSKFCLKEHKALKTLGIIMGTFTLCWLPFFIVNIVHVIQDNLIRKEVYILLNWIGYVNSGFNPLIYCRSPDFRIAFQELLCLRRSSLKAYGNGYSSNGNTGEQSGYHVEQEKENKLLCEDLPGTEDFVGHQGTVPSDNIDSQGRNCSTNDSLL
The target of the next data set is 5-HT2 binding site (Homo sapiens, UniProt P28223).
5-HT2 binding site, sequence (P28223 whole entry): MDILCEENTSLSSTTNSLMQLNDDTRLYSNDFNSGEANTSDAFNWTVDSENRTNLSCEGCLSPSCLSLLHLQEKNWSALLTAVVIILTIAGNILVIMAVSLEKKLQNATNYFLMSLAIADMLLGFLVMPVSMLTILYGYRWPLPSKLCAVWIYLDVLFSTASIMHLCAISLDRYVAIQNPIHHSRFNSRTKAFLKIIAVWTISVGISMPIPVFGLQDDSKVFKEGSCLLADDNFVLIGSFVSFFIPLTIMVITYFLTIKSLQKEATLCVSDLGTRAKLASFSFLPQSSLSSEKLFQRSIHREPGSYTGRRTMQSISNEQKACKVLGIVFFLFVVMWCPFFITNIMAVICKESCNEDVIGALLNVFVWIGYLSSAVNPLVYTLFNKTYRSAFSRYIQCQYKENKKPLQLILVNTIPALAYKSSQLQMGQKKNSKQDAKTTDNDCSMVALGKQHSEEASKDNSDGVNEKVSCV
The target of another data set is 5-HT1B binding site (Rattus norvegicus, UniProt P28564).
5-HT1B binding site, sequence (P28564 whole entry): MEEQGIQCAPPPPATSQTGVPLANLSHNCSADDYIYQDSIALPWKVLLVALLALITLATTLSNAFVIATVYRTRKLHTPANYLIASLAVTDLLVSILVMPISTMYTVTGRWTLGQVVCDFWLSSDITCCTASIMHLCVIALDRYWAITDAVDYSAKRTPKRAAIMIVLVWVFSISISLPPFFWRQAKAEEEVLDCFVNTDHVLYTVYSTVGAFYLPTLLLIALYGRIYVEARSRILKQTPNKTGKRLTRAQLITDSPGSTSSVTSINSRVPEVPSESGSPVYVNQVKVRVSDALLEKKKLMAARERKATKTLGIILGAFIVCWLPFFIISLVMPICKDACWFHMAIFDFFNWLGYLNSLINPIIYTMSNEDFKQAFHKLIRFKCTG
The target of another data set is T4, 5-HT1A binding site (Homo sapiens, UniProt P08908).
T4 sequence (P08908 1-422): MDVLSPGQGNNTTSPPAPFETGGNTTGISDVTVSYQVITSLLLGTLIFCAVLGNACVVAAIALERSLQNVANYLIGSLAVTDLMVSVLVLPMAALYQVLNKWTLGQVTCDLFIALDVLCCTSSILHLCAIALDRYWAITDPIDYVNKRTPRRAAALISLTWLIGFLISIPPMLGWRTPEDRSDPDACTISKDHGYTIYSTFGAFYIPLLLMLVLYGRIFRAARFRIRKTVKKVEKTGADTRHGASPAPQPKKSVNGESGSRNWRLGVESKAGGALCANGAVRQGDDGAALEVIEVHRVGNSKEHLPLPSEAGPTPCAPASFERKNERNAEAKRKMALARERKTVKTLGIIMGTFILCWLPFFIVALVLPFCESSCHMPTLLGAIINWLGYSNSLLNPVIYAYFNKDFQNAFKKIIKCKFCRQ

The target of a further data set is 5-HT1E binding site (Homo sapiens, UniProt P28566).
5-HT1E binding site, sequence (P28566 whole entry): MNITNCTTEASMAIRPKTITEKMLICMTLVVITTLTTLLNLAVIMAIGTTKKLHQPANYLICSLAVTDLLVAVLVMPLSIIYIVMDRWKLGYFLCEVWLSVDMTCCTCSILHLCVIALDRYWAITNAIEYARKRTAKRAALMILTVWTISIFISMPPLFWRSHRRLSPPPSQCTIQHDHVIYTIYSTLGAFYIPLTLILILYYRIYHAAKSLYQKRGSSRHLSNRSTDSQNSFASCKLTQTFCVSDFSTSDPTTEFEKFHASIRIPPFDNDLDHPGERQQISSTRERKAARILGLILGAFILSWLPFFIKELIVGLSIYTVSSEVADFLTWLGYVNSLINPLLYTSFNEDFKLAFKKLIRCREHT
In another data set the target is T5, 5-HT1C binding site (Homo sapiens, UniProt P28335).
T5 sequence (P28335 33-458): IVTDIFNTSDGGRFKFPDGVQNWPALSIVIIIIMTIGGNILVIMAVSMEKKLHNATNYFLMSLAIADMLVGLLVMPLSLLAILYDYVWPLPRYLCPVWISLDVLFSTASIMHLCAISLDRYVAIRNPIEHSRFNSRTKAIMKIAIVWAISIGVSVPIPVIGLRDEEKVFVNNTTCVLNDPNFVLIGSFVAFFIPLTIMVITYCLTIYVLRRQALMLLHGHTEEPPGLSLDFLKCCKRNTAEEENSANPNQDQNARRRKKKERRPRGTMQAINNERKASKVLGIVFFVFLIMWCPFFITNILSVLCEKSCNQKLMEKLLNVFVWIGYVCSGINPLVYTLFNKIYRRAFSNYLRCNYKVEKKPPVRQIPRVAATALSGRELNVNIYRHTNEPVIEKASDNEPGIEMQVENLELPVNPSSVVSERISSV

Data set [3] deals with T6, 5-HT1D receptor.
T6 construct: rows headed: efficacy compared to 5-HT; other: forskolin-stimulated adenylyl cyclase, guinea-pig substantia nigra
The following applies: forskolin-stimulated adenylyl cyclase, guinea-pig substantia nigra.

In data set [4] the target is 5-HT1D receptor. To be noted: K+-evoked [3H]-5-HT release, guinea-pig frontal cortex slices.
A further data set deals with neuropeptide release. The following applies: trigeminal ganglion stimulation in cats.
The target in another data set is T7, AT2 receptor (Homo sapiens, UniProt P50052).
T7 sequence (P50052 1-363): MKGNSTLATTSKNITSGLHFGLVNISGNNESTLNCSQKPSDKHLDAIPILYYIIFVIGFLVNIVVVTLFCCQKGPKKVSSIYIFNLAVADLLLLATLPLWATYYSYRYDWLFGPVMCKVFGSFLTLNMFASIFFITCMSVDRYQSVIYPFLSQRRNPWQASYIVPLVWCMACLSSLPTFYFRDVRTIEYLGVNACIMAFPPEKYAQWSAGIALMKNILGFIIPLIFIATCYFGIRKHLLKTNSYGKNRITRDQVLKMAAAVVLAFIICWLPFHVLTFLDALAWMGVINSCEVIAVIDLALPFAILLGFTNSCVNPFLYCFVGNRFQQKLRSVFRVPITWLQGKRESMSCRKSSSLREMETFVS

The subject of data set [5] is angiotensin II receptor sites. The following applies: rat adrenal cortical membranes and cultured rat smooth muscle cells.

Regarding `c1ccc2c(c1)CC[C@H](CNCCCNC1=NCCCN1)O2` [alniditan, (−)—(R)-N-[3,4-dihydro-2H-1-benzopyran-2-ylmethyl-N′-(1,4,5,6-tetrahydro-2-pyrimidinyl)-1,3-propanediaminedihydrochloride], the “potency compared with sumatriptan” value in the data set with 5-HT1-like receptor (anesthetized dogs) was “higher”. Also, the “common carotid arterial blood flow” value with 5-HT1-like receptor (anesthetized dogs, 0.63-80 μg/kg i.v.) is “reduces common carotid arterial blood flow”. The “effect on other cardiovascular variables” value in the data set with 5-HT1-like receptor (coronary, mesenteric and renal arterial blood flow, vascular and airway resistance) is reported as “comparatively little effect”.
As for `NCCc1c[nH]c2ccc(O)cc12` [Example 5-HT], the receptor reserve at 5-HT1F receptors (5-HT-induced inhibition of FSCA) is reported as 90%. At 5-HT1F receptors (NIH-3T3 cells), the “receptor occupancy required for half-maximal response” value is given as “about 10%”. The “potency (pD2 range)” value on 5-HT1D receptor [1] is 6.2-7.1.
Take angiotensin II: on AT1 receptor (AT1 vs AT2), the “selectivity for the AT subtypes” value is listed as “no selectivity”.
Regarding `CC(C)NCC(O)COc1cccc2[nH]ccc12` (centres unmarked) [pindolol], on 5-HT1 receptor, the “reversal of the response to 5-HT” value is given as “reversed”.
Turning to `CN(C)CCc1c[nH]c2ccc(Cn3cncn3)cc12` [rizatriptan], the maximum contractile response entry with human coronary artery (compared with sumatriptan) was “lower maximum contractile response”. Further, the “effectiveness in causing contraction of human isolated coronary artery” value was “less effective than sumatriptan” with human coronary artery, “significantly less efficacious than 5-HT” in the data set on human coronary artery (listed as MK462) and “significantly less effective than sumatriptan” with human coronary artery (listed as MK-462).
`NCCc1c[nH]c2ccc(C(N)=O)cc12` [Example 5-CT, 5-carboxamidotryptamine]: at 5-HT1D receptor [1], the “potency (pD2 range)” value was 7.2-7.6.
Consider `Cc1cc(Cn2cnc3c2CC(C(=O)O)N(C(=O)C(c2ccccc2)c2ccccc2)C3)ccc1N` (centres unmarked) [PD 123177], for which the affinity entry on AT1 receptor (AT1 receptor) is “low affinity”.
Turning to `CC(C)[N+]1(C)[C@@H]2CC[C@H]1C[C@@H](OC(=O)C(CO)c1ccccc1)C2` (some centres unmarked) [Ipratropium], in [2] (after inhalation), the “persistence of significant effects” value is “more than 4 hours” and the “time over which maximal responses develop” value was 30 to 90 min. Moreover, the “duration of useful response” value in data set [2] (some asthmatic patients) is “up to 6 hours”.
Take `CCC(NC(C)C)C(O)c1ccc(O)c2[nH]c(=O)ccc12` (centres unmarked) [Procaterol]: on β2-adrenergic receptor, the duration of action result is “about 5 hours” and the “onset of action (in words)” value was “rapid onset of action”.
On to `CS(=O)(=O)Nc1ccc(Cc2noc(-c3ccc4[nH]cc(CCN)c4c3)n2)cc1` [L-694,247], for which the pIC50 (usually −log10 of the IC50, conventionally taken in molar units) at 5-HT2 binding site is on record as 6.50; at 5-HT1A binding site, 8.64; at 5-HT1E binding site, 5.66; at 5-HT1C binding site, 6.42. Moreover, the “affinity (pIC50)” value at 5-HT1B binding site was 9.08; at 5-HT1D binding site, 10.03. Moreover, the negative logarithm of the EC50 (pEC50) (in general, −log10 of the EC50, conventionally taken in molar units) at 5-HT1D receptor [3] is 9.1; at 5-HT1D receptor [4] it was 9.4.
With `O=C(c1ccc(F)cc1)C1CCN(CCn2c(=O)[nH]c3ccccc3c2=O)CC1` [ketanserin], at 5-HT1 receptor, the “reversal of the response to 5-HT” value is on record as “not”.
In the case of `CN(C)CCc1c[nH]c2ccc(C[C@H]3COC(=O)N3)cc12` [Zolmitriptan], the neuropeptide release result in the data set with neuropeptide release is on record as “reduces neuropeptide release”.
As for `CNS(=O)(=O)Cc1ccc2[nH]cc(CCN(C)C)c2c1` [sumatriptan], the “efficacy, maximal contractile response (Emax)” value with 5-HT1D receptor [1] (compared to 5-HT and 5-CT) is recorded as “significantly greater”. Also, the “effectiveness in causing contraction of human isolated coronary artery” value in the data set with human coronary artery is reported as “significantly less efficacious than 5-HT”. The “affinity (pIC50)” value at 5-HT1D binding site was 8.22.
For the molecule `Cc1ccc(C(=O)Oc2ccc(C(O)CNC(C)(C)C)cc2OC(=O)c2ccc(C)cc2)cc1` (centres unmarked) [bitolterol], the “duration of effect after inhalation” value on β2-adrenergic receptor was 3 to 6 h.
In the case of `CC(Cc1ccc(O)cc1)NCC(O)c1cc(O)cc(O)c1` (centres unmarked) [Fenoterol], at β2-adrenergic receptor, the duration of action was 2 to 3 h and the “onset of action (in words)” value is listed as “rapid onset”.
In the case of `CC(C)NCC(O)c1cc(O)cc(O)c1` (centres unmarked) [Metaproterenol], on β2-adrenergic receptor, the “onset of action (in words)” value was “within minutes” and the “duration of effect after inhalation” value was “several hours”. The “duration of effects after oral administration” value on β2-adrenergic receptor (oral) was 3 to 4 h.
With `CC(C)(C)NCC(O)COc1cccc2[nH]c(C#N)cc12` (centres unmarked) [cyanopindolol], the “reversal of the response to 5-HT” value on 5-HT1 receptor is reported as “reversed”.
Take `CCCCc1nc(Cl)c(CO)n1Cc1ccc(-c2ccccc2-c2nn[nH]n2)cc1` [losartan]: the affinity result at AT2 receptor is listed as “low affinity”. For the same molecule, the “inhibition of specific binding of 125I-angiotensin II” value in data set [5] was “inhibits the specific binding”.
